Experimental data as given in patent US10508104B2, “6-hydroxy-5-(phenyl/heteroarylsulfonyl)pyrimidin-4(1H)-one as APJ agonists” (Bristol-Myers Squibb Company, priority 2016, dated 2019).

biological target: human APJ receptor (Homo sapiens (Human), UniProt P35414); assay: Intracellular cAMP accumulation assay (APJ hcAMP, HTRF); assay type: cell-based; conditions: HEK293 cells stably expressing human APJ receptor; inhibition of forskolin-mediated cAMP production; read-out: Human APJ cAMP EC50 Potency range
Procedure, shortened: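 HEK293 cells stably expressing human APJ, 5,000 per well, incubated 30 min at rt with compound, […] and 2 μM forskolin. cAMP measured by HTRF against a cAMP standard curve as inhibition of forskolin-driven production. EC50 from variable-slope sigmoidal fit.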

Sequence of human APJ receptor (P35414 whole entry): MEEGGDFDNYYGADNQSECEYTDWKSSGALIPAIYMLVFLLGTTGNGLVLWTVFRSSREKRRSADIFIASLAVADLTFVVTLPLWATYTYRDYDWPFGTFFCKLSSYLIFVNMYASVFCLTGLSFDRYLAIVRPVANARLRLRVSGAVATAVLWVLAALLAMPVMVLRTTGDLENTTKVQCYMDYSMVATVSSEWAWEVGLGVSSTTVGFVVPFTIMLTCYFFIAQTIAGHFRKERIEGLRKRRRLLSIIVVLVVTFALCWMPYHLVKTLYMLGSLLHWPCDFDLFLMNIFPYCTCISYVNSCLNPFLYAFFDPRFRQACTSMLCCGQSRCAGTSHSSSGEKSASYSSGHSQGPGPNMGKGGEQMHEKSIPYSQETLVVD

| Structure (SMILES) | EC50 |
| --- | --- |
| CCCCc1nc(=O)c(S(=O)(=O)c2ccc(-c3ccnc(F)c3C)cc2)c(O)n1[C@@H](CC)C1CCOCC1 [Example 528, 2-butyl-5-[4-(2-fluoro-3-methylpyridin-4-yl)benzenesulfonyl]-6-hydroxy-1-[(1S)-1-(oxan-4-yl)propyl]-1,4-dihydropyrimidin-4-one] | 0.01 to 10 nM |
| CCCCc1nc(=O)c(S(=O)(=O)c2ccc(-c3cccnc3C)cc2)c(O)n1[C@@H](CC)c1ccccc1F [Example 430, 2-butyl-1-[(1S)-1-(2-fluorophenyl)propyl]-6-hydroxy-5-[4-(2-methylpyridin-3-yl)benzenesulfonyl]-1,4-dihydropyrimidin-4-one] | 0.01 to 10 nM |
| CCCCc1nc(=O)c(S(=O)(=O)c2ccc(-c3ccc(F)nc3C)cc2)c(O)n1[C@@H](CC)c1cc(F)cc(C#N)c1 [Example 453, 3-[(1S)-1-{2-butyl-5-[4-(6-fluoro-2-methylpyridin-3-yl)benzenesulfonyl]-6-hydroxy-4-oxo-1,4-dihydropyrimidin-1-yl}propyl]-5-fluorobenzonitrile] | 0.01 to 10 nM |
| CCCCc1nc(=O)c(S(=O)(=O)c2ccc(-c3ccncc3C)cc2)c(O)n1[C@@H](CC)c1cc(F)cc(C#N)c1 [Example 450, 3-[(1S)-1-{2-butyl-6-hydroxy-5-[4-(3-methylpyridin-4-yl)benzenesulfonyl]-4-oxo-1,4-dihydropyrimidin-1-yl}propyl]-5-fluorobenzonitrile] | 0.01 to 10 nM |
| CC[C@@H](c1cccc(C#N)c1)n1c(COC(C)C)nc(=O)c(S(=O)(=O)c2ccc(-c3cccnc3C)cc2)c1O [Example 384, 3-[(1S)-1-{6-hydroxy-5-[4-(2-methylpyridin-3-yl)benzenesulfonyl]-4-oxo-2-[(propan-2-yloxy)methyl]-1,4-dihydropyrimidin-1-yl}propyl]benzonitrile] | 0.01 to 10 nM |
| COC[C@@H](c1cc(F)cc(F)c1)n1c(COC(C)C)nc(=O)c(S(=O)(=O)c2ccc(Br)cc2)c1O [Example 368, 5-(4-bromobenzenesulfonyl)-1-[(1R)-1-(3,5-difluorophenyl)-2-methoxyethyl]-6-hydroxy-2-[(propan-2-yloxy)methyl]-1,4-dihydropyrimidin-4-one] | 0.01 to 10 nM |
| CCOCc1nc(=O)c(S(=O)(=O)c2ccc(-c3ccccc3C(N)=O)c(F)c2)c(O)n1C(COC)c1cccc(F)c1 (stereo not drawn) [Example 401, 4′-{[2-(ethoxymethyl)-1-[1-(3-fluorophenyl)-2-methoxyethyl]-6-hydroxy-4-oxo-1,4-dihydropyrimidin-5-yl]sulfonyl}-2′-fluoro-[1,1′-biphenyl]-2-carboxamide] | 0.01 to 10 nM |
| CC[C@@H](c1cccc(C#N)c1)n1c(CC2CC2)nc(=O)c(S(=O)(=O)c2ccc(-c3ccncc3C#N)cc2)c1O [Example 474, 4-[4-({1-[(1S)-1-(3-cyanophenyl)propyl]-2-(cyclopropylmethyl)-6-hydroxy-4-oxo-1,4-dihydropyrimidin-5-yl}sulfonyl)phenyl] pyridine-3-carbonitrile] | 0.01 to 10 nM |

same assay, conditions: human APJ, cAMP accumulation; read-out: Human APJ cAMP EC50 Potency range

| Structure (SMILES) | EC50 |
| --- | --- |
| COC[C@@H](c1ccccc1)n1c(C2CCCO2)nc(=O)c(S(=O)(=O)c2ccc(-c3ccncc3C)cc2)c1O (single isomer, unassigned) [Example 350] | 0.01 to 10 nM |
| CCCCc1nc(=O)c(S(=O)(=O)c2ccc(-c3cncc(F)c3)cc2)c(O)n1[C@@H](C)c1ccc(OC)cc1 [Example 241, 2-butyl-5-[4-(5-fluoropyridin-3-yl)benzenesulfonyl]-6-hydroxy-1-[(1S)-1-(4-methoxyphenyl)ethyl]-1,4-dihydropyrimidin-4-one] | 0.01 to 10 nM |
| CCCCc1nc(=O)c(S(=O)(=O)c2ccc(-c3cncc(F)c3)cc2)c(O)n1[C@@H](CC)c1cccc(C#N)c1 [Example 225, 3-[(1S)-1-{2-butyl-5-[4-(5-fluoropyridin-3-yl)benzenesulfonyl]-6-hydroxy-4-oxo-1,4-dihydropyrimidin-1-yl}propyl]benzonitrile] | 0.01 to 10 nM |
| CCCCc1nc(=O)c(S(=O)(=O)c2ccc(-c3ccc(F)nc3C)cc2)c(O)n1[C@@H](CC)c1cccc2c1OCO2 [Example 264, 1-[(1S)-1-(2H-1,3-benzodioxol-4-yl)propyl]-2-butyl-5-[4-(6-fluoro-2-methylpyridin-3-yl)benzenesulfonyl]-6-hydroxy-1,4-dihydropyrimidin-4-one] | 0.01 to 10 nM |
| COC[C@@H](c1ccccc1)n1c(C2CCCO2)nc(=O)c(S(=O)(=O)c2ccc(Br)cc2)c1O (stereo partly drawn) [Example 349, 5-(4-bromobenzenesulfonyl)-6-hydroxy-1-[(1R)-2-methoxy-1-phenylethyl]-2-(oxolan-2-yl)-1,4-dihydropyrimidin-4-one] | 100 to 300 nM |

same assay, conditions: human APJ, intracellular cAMP accumulation; read-out: Human APJ cAMP EC50 Potency range

| Structure (SMILES) | EC50 |
| --- | --- |
| COc1cccc(OC)c1-n1c(CCC(C)C)nc(=O)c(S(=O)(=O)c2ccc(-c3ccccc3)cc2)c1O [Example 11, 1-(2,6-dimethoxyphenyl)-6-hydroxy-2-(3-methylbutyl)-5-(4-phenylbenzenesulfonyl)-1,4-dihydropyrimidin-4-one] | 0.01 to 10 nM |
| COC[C@@H](c1ccccc1)n1c(CCC(C)C)nc(=O)c(S(=O)(=O)c2ccc(-c3cccnc3C)cc2)c1O [Example 190, 6-hydroxy-1-[(1R)-2-methoxy-1-phenylethyl]-2-(3-methylbutyl)-5-[4-(2-methylpyridin-3-yl)benzenesulfonyl]-1,4-dihydropyrimidin-4-one] | 0.01 to 10 nM |
| CCCCc1nc(=O)c(S(=O)(=O)c2ccc(C3CC3)cc2)c(O)n1-c1c(CC)cccc1CC [Example 87, 2-butyl-5-(4-cyclopropylbenzene-sulfonyl)-1-(2,6-diethylphenyl)-6-hydroxy-1,4-dihydropyrimidin-4-one] | 0.01 to 10 nM |
| CCCCc1nc(=O)c(S(=O)(=O)c2ccc(-c3ccc(F)nc3C)cc2)c(O)n1[C@H]1CCc2ccccc21 [Example 171, 2-butyl-1-[(1S)-2,3-dihydro-1H-inden-1-yl]-5-[4-(6-fluoro-2-methylpyridin-3-yl)benzenesulfonyl]-6-hydroxy-1,4-dihydropyrimidin-4-one] | 0.01 to 10 nM |
| CCCCc1nc(=O)c(S(=O)(=O)c2ccc(-c3ccncc3C)cc2)c(O)n1[C@@H](COC)c1ccccc1 [Example 134, 2-butyl-6-hydroxy-1-[(1R)-2-methoxy-1-phenylethyl]-5-[4-(3-methylpyridin-4-yl)benzenesulfonyl]-1,4-dihydropyrimidin-4-one] | 0.01 to 10 nM |
| CCCCc1nc(=O)c(S(=O)(=O)c2ccc(-c3ccncc3C)cc2)c(O)n1[C@@H](CC)c1cccc(Cl)c1 [Example 192, 2-butyl-1-[(1S)-1-(3-chlorophenyl)propyl]-6-hydroxy-5-[4-(3-methylpyridin-4-yl)benzenesulfonyl]-1,4-dihydropyrimidin-4-one] | 0.01 to 10 nM |
| CCCCc1nc(=O)c(S(=O)(=O)c2ccc(-n3cc(C)ccc3=O)cc2)c(O)n1-c1c(OC)cccc1OC [Example 76, 2-butyl-1-(2,6-dimethoxyphenyl)-6-hydroxy-5-[4-(5-methyl-2-oxo-1,2-dihydropyridin-1-yl)benzenesulfonyl]-1,4-dihydropyrimidin-4-one] | 0.01 to 10 nM |
| CCCCc1nc(=O)c(S(=O)(=O)c2ccc(-c3ccncc3C)cc2)c(O)n1C(C)c1cccnc1 (stereo not drawn) [Example 205, 2-butyl-6-hydroxy-5-[4-(3-methylpyridin-4-yl)benzenesulfonyl]-1-[1-(pyridin-3-yl)ethyl]-1,4-dihydropyrimidin-4-one] | 0.01 to 10 nM |
